Where two headings read alike, the source gives them in different places.
System: adult e-cigarette users
Conditions: for Saliva Cotinine Actual Value, Mean / Saliva Cotinine Actual Value, Median / Saliva Cotinine Change from Baseline, Mean / Saliva Cotinine Change from Baseline, Median: 12 Weeks arm, All Randomized Set; for Saliva Cotinine Change from Baseline, LS Means / Saliva Cotinine Change from Baseline, LS Means Difference from Placebo: repeated-measures ANOVA
Excerpt: A second measurement consisted of biochemically verified continuous vaping abstinence at any time during treatment, with vaping abstinence at Week 3-6 or Week 6-9 for of cytisinicline treatment vs placebo. 7-day point prevalence rates were compared for vaping abstinence (Week 2 to 12) (FIG. 62). An additional measurement included reduction in daily vaping as measured by cotinine, where cytisinicline treatment vs placebo for a reduction in nicotine vaping using weekly quantitative cotinine levels from Week 2 to Week 12. Safety was assessed by adverse effects and serious adverse effects, considering number, severity, and attribution to study drug.
Cotinine: The data were analyzed by visit and also using a repeated measures model. […] Cotinine values less than 1 were converted to 1 due to asymmetry.

SMILES: O=c1cccc2n1C[C@@H]1CNC[C@H]2C1 [cytisine, (−)-Cytisine]
- Saliva Cotinine Actual Value, Mean (Week 2): 133.598 ng/mL
- Saliva Cotinine Actual Value, Median (Week 2): 70.200 ng/mL
- Saliva Cotinine Change from Baseline, Mean (Week 2): -185.522 ng/mL
- Saliva Cotinine Change from Baseline, Median (Week 2): -182.015 ng/mL
- Saliva Cotinine Change from Baseline, LS Means (Week 2): -181.306 ng/mL
- Saliva Cotinine Change from Baseline, LS Means Difference from Placebo (Week 2): -32.506 ng/mL
- Saliva Cotinine Actual Value, Mean (Week 3): 112.224 ng/mL
- Saliva Cotinine Actual Value, Median (Week 3): 2.495 ng/mL
- Saliva Cotinine Change from Baseline, Mean (Week 3): -210.563 ng/mL
- Saliva Cotinine Change from Baseline, Median (Week 3): -210.500 ng/mL
- Saliva Cotinine Change from Baseline, LS Means (Week 3): -205.329 ng/mL
- Saliva Cotinine Change from Baseline, LS Means Difference from Placebo (Week 3): -72.832 ng/mL
- Saliva Cotinine Actual Value, Mean (Week 4): 112.055 ng/mL
- Saliva Cotinine Actual Value, Median (Week 4): 1.710 ng/mL
- Saliva Cotinine Change from Baseline, Mean (Week 4): -206.833 ng/mL
- Saliva Cotinine Change from Baseline, Median (Week 4): -203.500 ng/mL
- Saliva Cotinine Change from Baseline, LS Means (Week 4): -202.672 ng/mL
- Saliva Cotinine Change from Baseline, LS Means Difference from Placebo (Week 4): -74.090 ng/mL
- Saliva Cotinine Actual Value, Mean (Week 5): 111.201 ng/mL
- Saliva Cotinine Actual Value, Median (Week 5): 1.565 ng/mL
- Saliva Cotinine Change from Baseline, Mean (Week 5): -204.721 ng/mL
- Saliva Cotinine Change from Baseline, Median (Week 5): -187.000 ng/mL
- Saliva Cotinine Change from Baseline, LS Means (Week 5): -201.526 ng/mL
- Saliva Cotinine Change from Baseline, LS Means Difference from Placebo (Week 5): -83.364 ng/mL
- Saliva Cotinine Actual Value, Mean (Week 6): 123.705 ng/mL
- Saliva Cotinine Actual Value, Median (Week 6): 1.480 ng/mL
- Saliva Cotinine Change from Baseline, Mean (Week 6): -199.608 ng/mL
- Saliva Cotinine Change from Baseline, Median (Week 6): -168.500 ng/mL
- Saliva Cotinine Change from Baseline, LS Means (Week 6): -196.960 ng/mL
- Saliva Cotinine Change from Baseline, LS Means Difference from Placebo (Week 6): -79.952 ng/mL
- Saliva Cotinine Actual Value, Mean (Week 7): 133.054 ng/mL
- Saliva Cotinine Actual Value, Median (Week 7): 0 ng/mL
- Saliva Cotinine Change from Baseline, Mean (Week 7): -181.605 ng/mL
- Saliva Cotinine Change from Baseline, Median (Week 7): -184.000 ng/mL
- Saliva Cotinine Change from Baseline, LS Means (Week 7): -179.597 ng/mL
- Saliva Cotinine Change from Baseline, LS Means Difference from Placebo (Week 7): -49.309 ng/mL
- Saliva Cotinine Actual Value, Mean (Week 8): 125.966 ng/mL
- Saliva Cotinine Actual Value, Median (Week 8): 0 ng/mL
- Saliva Cotinine Change from Baseline, Mean (Week 8): -188.539 ng/mL
- Saliva Cotinine Change from Baseline, Median (Week 8): -194.655 ng/mL
- Saliva Cotinine Change from Baseline, LS Means (Week 8): -192.048 ng/mL
- Saliva Cotinine Change from Baseline, LS Means Difference from Placebo (Week 8): -78.107 ng/mL
- Saliva Cotinine Actual Value, Mean (Week 9): 121.622 ng/mL
- Saliva Cotinine Actual Value, Median (Week 9): 2.030 ng/mL
- Saliva Cotinine Change from Baseline, Mean (Week 9): -202.849 ng/mL
- Saliva Cotinine Change from Baseline, Median (Week 9): -199.000 ng/mL
- Saliva Cotinine Change from Baseline, LS Means (Week 9): -195.014 ng/mL
- Saliva Cotinine Change from Baseline, LS Means Difference from Placebo (Week 9): -86.006 ng/mL
- Saliva Cotinine Actual Value, Mean (Week 10): 127.718 ng/mL
- Saliva Cotinine Actual Value, Median (Week 10): 4.100 ng/mL
- Saliva Cotinine Change from Baseline, Mean (Week 10): -200.886 ng/mL
- Saliva Cotinine Change from Baseline, Median (Week 10): -197.500 ng/mL
- Saliva Cotinine Change from Baseline, LS Means (Week 10): -196.615 ng/mL
- Saliva Cotinine Change from Baseline, LS Means Difference from Placebo (Week 10): -62.680 ng/mL
- Saliva Cotinine Actual Value, Mean (Week 11): 137.834 ng/mL
- Saliva Cotinine Actual Value, Median (Week 11): 10.900 ng/mL
- Saliva Cotinine Change from Baseline, Mean (Week 11): -187.683 ng/mL
- Saliva Cotinine Change from Baseline, Median (Week 11): -177.500 ng/mL
- Saliva Cotinine Change from Baseline, LS Means (Week 11): -186.878 ng/mL
- Saliva Cotinine Change from Baseline, LS Means Difference from Placebo (Week 11): -63.262 ng/mL
- Saliva Cotinine Actual Value, Mean (Week 12): 157.889 ng/mL
- Saliva Cotinine Actual Value, Median (Week 12): 36.550 ng/mL
- Saliva Cotinine Change from Baseline, Mean (Week 12): -172.588 ng/mL
- Saliva Cotinine Change from Baseline, Median (Week 12): -178.000 ng/mL
- Saliva Cotinine Change from Baseline, LS Means (Week 12): -167.731 ng/mL
- Saliva Cotinine Change from Baseline, LS Means Difference from Placebo (Week 12): -57.329 ng/mL
- Saliva Cotinine Actual Value, Mean (Week 16): 181.742 ng/mL
- Saliva Cotinine Actual Value, Median (Week 16): 140.000 ng/mL
- Saliva Cotinine Change from Baseline, Mean (Week 16): -146.358 ng/mL
- Saliva Cotinine Change from Baseline, Median (Week 16): -116.000 ng/mL
- Saliva Cotinine Change from Baseline, LS Means (Week 16): -145.035 ng/mL
- Saliva Cotinine Change from Baseline, LS Means Difference from Placebo (Week 16): -54.792 ng/mL

Source: patent publication US20260158011A1 (Achieve Life Sciences, Inc., priority 2023, published 2026)
